Test results as given in US4304778A, “4-Aminoquinazoline derivatives having fungicidal, anti-insect and acaricidal properties” (Sankyo Company Limited, priority 1978, dated 1981).

Legend:
Phytophthora infestans = assay type: in vivo; conditions: tomato late blight; 500 ppm; after 5 days; average per leaf
Alternalia solani = assay: Effect on early blight in tomatoes; assay type: in vivo; conditions: tomato early blight; 500 ppm; 3 days in greenhouse
Procedure: (§1) In the following Examples, wettable powders prepared according to the procedures of Example 4 were used, each powder containing 50% by weight of the active compound of this invention.
Groups of tomato plants (variety Shinfukuju) were planted, two per pot, in a series of Wagner pots (diameter 12 cm) and used for the following test when at the 5 to 6 leaf stage. Each pot was treated with 30 ml of an aqueous suspension containing 500 ppm of one of the active compounds shown in Table 3, applied to the plants by spraying over their stems and leaves. After air-drying the plants, a spore suspension of the pathogenic microorganism Alternalia solani was sprayed over each plant, and the plants were kept in a wet room for 24 hours at 20°-22° C. and 100% relative humidity. The pots were then placed in a greenhouse for 3 days. All leaves were then examined for signs of the disease and the number of disease spots per leaf was calculated, using three pots for each compound.

[1] = tested on: Colletotrichum lagenarium; assay: Effect on anthracnose in cucumbers; assay type: in vivo; conditions: cucumber anthracnose; 500 ppm; seven days; cotyledon and first leaf
Procedure: as §1
Groups of cucumber plants (variety Sagamihanshiro) were planted, two per pot, in a series of Wagner pots (diameter 12 cm) and were used as host plants when the first leaf was fully grown and open. Each test group of three pots was treated with one of the active compounds shown in Table 4 by spraying an aqueous suspension containing 500 ppm of the active compound onto the plants at the rate of 30 ml per 3 pots. After air-drying the plants, a spore suspension of the pathogenic microorganism Colletotrichum lagenarium was sprayed onto the plants and the plants were kept in a wet room for 24 hours at 20°-22° C. and 100% relative humidity. The pots were then placed in a greenhouse at 26° C. and, seven days after the spore suspension had been sprayed on, the percentage diseased area of the cotyledon and the first leaf was calculated.

cockroach larvae = conditions: 24 hours; 25° C.
Sphaerotheca fuliginea = assay: Effect on powdery mildew in cucumbers; assay type: in vivo; conditions: cucumber powdery mildew; 500 ppm; 10 days
Procedure: as §1
Cucumber seedlings (variety Sagamihanshiro), planted two per 12 cm diameter pot, were used as host plants at the stage when the first leaf was fully grown and open. Each test group of three pots was treated with one of the active compounds shown in Table 5 by spraying an aqueous suspension containing 500 ppm of the active compound onto the plants at the rate of 20 ml per 3 pots. After air-drying the plants, the host plants were inoculated with the microorganism Sphaerotheca fuliginea by brushing already infected cucumber leaves with a small brush and letting the microorganism fall onto the host plants. The inoculated plants were kept in a greenhouse at 24°-26° C. for 10 days. At the end of this time, the percentage diseased area was measured.

guppies = assay: Toxicity to guppies; assay type: in vivo; conditions: LC50 after 48 hours classified
Procedure: In this example the toxicity of the compounds of the invention towards guppies was estimated and is compared with that of corresponding compounds as disclosed and claimed in our co-pending U.S. Application No. 910,117 filed May 30, 1978. The LC50 was determined after 48 hours and the toxicity to guppies was classified into the rankings (i), (ii) and (iii) according to the following classification scheme: […]

Piricularia oryzae = assay type: in vivo; conditions: rice blast; 500 ppm spray; mean, upper two leaves
[2] = tested on: third instar larvae of the tobacco cutworm; assay: Repellent action against the third instar larvae of the tobacco cutworm; assay type: in vivo; conditions: cabbage leaves dipped in 500 ppm, 72 hours
Description: as §1
Cabbage leaves were dipped for 30 seconds in an aqueous suspension containing 500 ppm of one of the active compounds shown in Table 6. After air-drying, each leaf was placed into a plastic receptacle having a diameter of 8 cm and the third instar larvae (10 per receptacle) of the tobacco cutworm were released onto the leaves. After 72 hours, the extent of ingestion of the leaves was measured, using two receptacles for each test compound. The results are shown in Table 6, using the following notation (which is also employed, with the same meaning, in following Table 9): […]

[3] = tested on: final instar larvae of the diamondback moth (Plutella xylostella); assay: Repellent and emergence-inhibition effect on the final instar larvae of diamondback moths; assay type: in vivo; conditions: 72 hours
Description: as §1
Leaves of the Japanese radish (Raphanus sativus) were dipped for 30 seconds into a liquid containing 500 ppm of one of the compounds shown in Table 9. After air-drying the leaves, each leaf was placed into a plastic icecream cup (diameter 8 cm) and 15 final instar larvae of the diamondback moth (Plutella xylostella) were placed into each cup. Each test was conducted in duplicate and the results were averaged.

SMILES	Diseased area (%) (Phytophthora infestans)	No. of disease spots per leaf (Alternalia solani) [spots per leaf]	Diseased area (%) [1] [%]	Diseased area (%) (Sphaerotheca fuliginea)	further results
CCN(CCOc1ccccc1C)c1ncnc2ccccc12 [Compound No. 2, 4-{N-ethyl-N-[2-(2-methylphenoxy)ethyl]amino}quinazoline]	3	16	0	0	Mortality rate (%), 0.5mg test cpd/10 cockroaches/bottle (cockroach larvae): 90%; Mortality rate (%), 1mg test cpd/10 cockroaches/bottle (cockroach larvae): 100%; Toxicity ranking (guppies): ii (all fish dead at 10 ppm but alive at 0.5 ppm)
CCCCCCCCc1ccc(C)c(OCCN(C)c2ncnc3ccccc23)c1 [compound 56, 4-{N-methyl-N-[2-(2-methyl-5-octylphenoxy)ethyl]amino}quinazoline]					No. of disease spots per leaf (Piricularia oryzae): 3.2 spots per leaf
CN(CCOCc1ccc(Cl)cc1)c1ncnc2ccccc12 [compound 14, 4-{N-[2-(4-chlorobenzyloxy)ethyl]-N-methylamino}quinazoline]					No. of disease spots per leaf (Piricularia oryzae): 1.5 spots per leaf
Cc1ccccc1OCCN(c1ncnc2ccccc12)C1CCCCC1 [compound 9, 4-{N-cyclohexyl-N-[2-(2-methylphenoxy)ethyl]amino}quinazoline]	13	15			
C=CCN(CCOc1ccc(C)cc1C)c1ncnc2ccccc12 [compound 26, 4-{N-allyl-N-[2-(2,4-dimethylphenoxy)ethyl]amino}quinazoline]	3		0	0	Extent of ingestion [2]: ± to +; Mortality rate (%), 0.5mg test cpd/10 cockroaches/bottle (cockroach larvae): 90%; Mortality rate (%), 1mg test cpd/10 cockroaches/bottle (cockroach larvae): 100%; pest or weed control at 500 ppm ([3]; Plutella xylostella, 500 ppm, read-out: Emergence-inhibition rate (%)): 80%; Extent of ingestion ([3]; radish leaves dipped in 500 ppm): ± to +
CC=CCN(CCOc1ccccc1C(C)C)c1ncnc2ccccc12 [compound 51, 4-{N-(2-butenyl)-N-[2-(2-isopropylphenoxy)ethyl]amino}quinazoline]	0	4	0	0	
Cc1ccc(OCCN(c2ncnc3ccccc23)C(C)C)c(C)c1 [compound 34, 4-{N-[2-(2,4-dimethylphenoxy)ethyl]-N-isopropylamino}quinazoline]	0	15		10	
CC(C)c1ccccc1OCCN(c1ncnc2ccccc12)C1CCCCC1 [compound 31, 4-{N-cyclohexyl-N-[2-(2-isopropylphenoxy)ethyl]amino}quinazoline]		13			
C=CCN(CCOc1ccccc1C(C)C)c1ncnc2ccccc12 [compound 25, 4-{N-allyl-N-[2-(2-isopropylphenoxy)ethyl]amino}quinazoline]	0	15	8	0	Mortality rate (%), 0.5mg test cpd/10 cockroaches/bottle (cockroach larvae): 85%; Mortality rate (%), 1mg test cpd/10 cockroaches/bottle (cockroach larvae): 100%
Cc1ccccc1OCCN(C)c1ncnc2ccccc12 [Compound No. 1, 4-{N-methyl-N-[2-(2-methylphenoxy)ethyl]amino}-quinazoline]	0	8	0	0	Toxicity ranking (guppies): ii (all fish dead at 10 ppm but alive at 0.5 ppm)
CCCCN(CCOc1ccccc1C)c1ncnc2ccccc12 [compound 10, 4-{N-butyl-N-[2-(2-methylphenoxy)ethyl]amino}quinazoline]		4		0	
